Data: patent publication US20120016014A1, “BENZOTHIOPHENE CARBOXAMIDE COMPOUNDS, COMPOSITION AND APPLICATIONS THEREOF” (INDIAN INSTITUTE OF SCIENCE, priority 2010, published 2012)
Values joined by “and” are separate entries in the source; they are usually repeats but may differ in a detail not shown here. Identical values can stand only once. Like-named read-outs stand apart in the source and are kept apart here.

Tests used:
[1] = target: T1, purified PfENR (Plasmodium falciparum, UniProt Q9BH77); experiment: PfENR inhibition, standard enzyme assay; format: biochemical; conditions: read-out: Inhibition of PfENR (IC50 μM)
T1 sequence (Q9BH77 22-432): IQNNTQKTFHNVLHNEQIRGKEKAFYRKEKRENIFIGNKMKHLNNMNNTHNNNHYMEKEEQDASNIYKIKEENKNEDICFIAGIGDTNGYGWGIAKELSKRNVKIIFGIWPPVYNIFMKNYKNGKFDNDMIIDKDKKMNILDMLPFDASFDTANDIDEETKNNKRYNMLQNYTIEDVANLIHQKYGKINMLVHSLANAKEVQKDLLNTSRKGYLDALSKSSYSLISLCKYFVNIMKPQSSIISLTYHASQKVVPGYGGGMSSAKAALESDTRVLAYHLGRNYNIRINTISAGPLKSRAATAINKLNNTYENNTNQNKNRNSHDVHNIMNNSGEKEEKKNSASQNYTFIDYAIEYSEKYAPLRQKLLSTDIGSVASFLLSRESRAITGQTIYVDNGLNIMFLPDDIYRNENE
Protocol: (§1) PfENR activity was determined using standard assay described earlier.

[2] = system: Plasmodium falciparum 3D7; experiment: In vitro inhibition of P. falciparum 3D7 blood-stage parasites; format: cell-based; conditions: for IC50: read-out: P. falciparum (IC50 μM)
Protocol: Benzothiophene carboxamide derivatives of the present invention were checked for their anti-parasitic activity against 3D7 (chloroquine sensitive strain) in an in vitro culture. […] To find out parasite stage where these compounds act, synchronised ring stage culture of P. falciparum was treated with 2.5 μM concentration of compounds 6 and 7. […] When compounds 6 and 7 were added at the trophozoite stage the cells could not proceed to the schizont stage indicating the growth inhibition occurs at trophozoite stage.
Synchronised culture of P. falciparum 3D7 was treated with 2.5 μM compound 10 and 11 at the ring stage.

[3] = Hot plate latency test (thermal hyperalgesia); format: in vivo, rats; conditions: for Analgesic activity compared with Ibuprofen, hot plate: compounds 15 mg/kg b. wt. vs Ibuprofen 50 mg/kg b. wt.
Protocol: The animals were housed in an animal house facility of National Institute of Immunology, India, with controlled temperature (22±2° C.) under a 12/12 h light/dark cycle. They had free access to food and water ad libitum. All experiments were conducted according to the guidelines of the international association for the study of pain and approved by the institutional ethical committee for animal research. All in vivo experiments were carried out on inbred male […] rats ( 200-320 g body weight). Same age and equal body weight of animals were used according to experiments. No animals were used for more than one experiment. Most popular non-steroidal anti-inflammatory drugs which are widely use for treatment of chronic and inflammatory pain, such as Ibuprofen, Naproxen, Ketoprofen, Aspirin, Nimesulide, Indomethacine were purchased from Cayman Chemicals, USA and used to evaluate the efficacy of drugs in animal model. These drugs and different derivatives of Benzothiophene were dissolved in minimum volume of Dimethyl sulfoxide (DMSO) and further diluted in Phosphate buffer saline prior to use. […] Withdrawal latency for tail flicking was measured. […] NSAIDs is commonly evaluated by hot plate latency assay whereby animals are exposed to thermal stimulus (54 degree […] time for hind paw licking is measured as behavioural response for pain.

[4] = Mechanical hyperalgesia, Randall-Selitto, carrageenan induced; format: in vivo, rats; conditions: 15 mg/kg b wt., after 1 hrs, basal level in 5 hrs
Protocol: Mechanical hyperalgesia was measured as hind limb withdrawal threshold in response to a mechanical stimulus applied to hind paws of rat using Randall-selitto meter, Randall and Selitto, 1957. To determine the mechanical hyperalgesia, the force was applied with increased pressure at a constant rate until the animal withdrew its limb. The base line nociceptive threshold was measured before induction of hyperalgesia. Moreover, hyperalgesia was induced by carrageenan and then groups of animal were treated with compound 4, compound 6 and compound 8 (15 mg/kg body weight) and Ibuprofen (50 mg/kg body weight). Control group was treated with physiological saline. […] The anti-nociceptive efficacy of the compounds has been evaluated the efficacy with paw withdrawal threshold latency of animals.

[5] = Tail flick latency test; conditions: 15 mg/kg b. wt. vs Ibuprofen 50 mg/kg b. wt., 30 min and 60 min post injection
Protocol: Hot plate latency test was performed under red light on the metal surface of hot plate analgesia meter (IITC, Life science, CA). Animals were placed individually on the surface of hot plate maintained at a constant temperature 54±1° C. The anti-nociceptive response was latency recorded from the time when animal was placed on the heated surface until the behavior response show licking of hind paw to avoid thermal nociception. A maximum hot plate latency of 30 sec was used for each animal to prevent paw tissue damage. Base line nociceptive latency was obtained for each animal prior to any drug administration. Thereafter, groups of animals were treated with different concentration of different derivatives of benzothiophene and well known NSAIDs. […] Subsequent nociceptive response latency for each animal was determined at 30 and 60 min after drug administration. […] In continuation of tail flick latency assay, the anti-nociceptive effect of the compounds was monitored. Rats treated as described above were subjected to determination of thermal nociceptive pain. Rats were confined in restrainer and allowed to accommodate. The tail withdrawal test consisted of immersing the posterior 8-10 cm of the tail in hot water bath maintained at 54±1° C. Withdrawal latency for tail flicking was measured. A maximum tail flick latency of 20 sec was permitted to minimize tissue damage.

[6] = target: T1, purified PfENR; experiment: PfENR inhibition kinetics, cofactor potency and progress curve analysis; format: biochemical
Protocol: as §1
The accumulation of product further decreased when compound 6 was preincubated with the enzyme (curve c). On addition of NAD+ to this reaction the rate of product accumulation further decreased (curve d).
Progress curves for inhibition by varying concentrations of compounds 6 and 7 were examined in detail (FIGS. 16a and 16b). From the progress curve analyses, it was inferred that for each concentration of the inhibitors the initial and the steady state velocity decreased exponentially with time. At higher inhibitor concentration, steady state is reached rapidly with a decrease in steady state velocity (vs). […] Progress curves were analysed using equation 3a from which a series of Kobs values were obtained for each concentration of inhibitor.

[7] = system: hepatic cell stages of P. berghei; experiment: Inhibition of hepatic cell stages (EEFs) of P. berghei; format: cell-based
[8] = system: HepG2 cells; experiment: Toxicity to HepG2 cells; format: cell-based; conditions: one day treatment
[9] = system: blood-stage P. berghei ANKA; experiment: Experimental cerebral malaria in C57BL/6 mice; format: in vivo; conditions: for Mean Survival Days (Observed for 25 days): 5 mg/kg body weight daily for six days
Protocol: C57BL/6 mice were infected with blood-stage P. berghei ANKA as discussed in the experimental section. After 24 hours of infection mice were treated intravenously with various doses of inhibitors. It was observed that all control mice developed hypothermia by day 2, ataxia and convulsions by day 3 and died by day 6, whereas inhibitor treated groups had considerably higher longevity (11-24 days). Though each group of mice developed hypothermia by day 4, convulsions and ataxia development were delayed in case of treated mice. […] The mice treated with 2.5 mg/kg body weight survived for 18 days. Even at or below 1 mg/kg body weight of inhibitor dose, the mice survived for 11 days, but paralysis and ataxia development occurred on Day 7.
[…]. The mice were treated for 6 days. […]. Chloroquine was used as the control drug. […].
Therefore, compounds 10 and 11 were also administered at 5 mg/Kg body weight. The compounds were administered through intraperitoneal, peroral, subcutaneous and intravenous routes. Compound 10 and 11 were administered once daily for 6 days. […]. The mean survival days for this treatment group was 16 (FIG. 12c and Table III). […]. Chloroquine was used as the control drug.

[10] = system: liver stage of Plasmodium; conditions: Singh A. P. et al, IUBMB life 61, 923-928; read-out: IC50, inhibition of liver stage parasite development before invasion; cited from earlier work
[11] = Erythrocyte, growth inhibition, red blood cell stages of Plasmodium falciparum 3D7 (chloroquine sensitive)

Compound: O=C(NCc1ccccc1)c1sc2ccccc2c1Br [Compound 4, N-benzyl-3-bromobenzo[b]thiophene-2-carboxamide]
- IC50 [1]: 0.51 µM and 0.501 µM
- IC50 [2, 11]: 2 ± 0.5 µM
- Analgesic activity compared with Ibuprofen, hot plate [3]: potent analgesic activity at much lower concentration than Ibuprofen
- Mechanical hyperalgesia, paw withdrawal threshold [4]: significantly reversed the mechanical hyperalgesia
- melting point: 115 to 117 °C
- Anti-nociceptive response, tail flick latency assay [5]: better anti-nociceptive response than the Ibuprofen

Compound: O=C(NCc1ccc(F)cc1)c1sc2ccccc2c1Br [Compound 6, N-(4-fluorobenzyl)-3-bromobenzo[b]thiophene-2-carboxamide]
- IC50 [1]: 0.115 ± 0.12 µM
- Stage of parasite growth arrest ([2]; 2.5 μM, added at ring stage, P. falciparum 3D7): arrested at the trophozoite stage
- Parasites observed to be dead ([2]; 2.5 μM, synchronised ring stage culture of P. falciparum 3D7): ~90%
- IC50 [2, 11]: 1 ± 0.3 µM
- Effect of NAD+ on binding to PfENR (cofactor potency assay) ([6]; 10 μM NAD+ added to preincubated mixture): potentiate the binding
- Inhibition kinetics with respect to NADH ([6]; Dixon plot, cofactor NADH): competitive kinetics with NADH
- Inhibition kinetics with respect to crotonoyl CoA ([6]; Dixon plot, substrate crotonoyl CoA): uncompetitive against crotonoyl CoA
- Binding behaviour from progress curves ([6]; inhibitor 0-750 nM): slow tight binding behaviour
- Isomerization rate constant (k5 * 10^−2) (s^−1) ([6]; purified PfENR, progress curves): 1.19 ± .045 10^−2 s^−1
- koff ([6]; purified PfENR, progress curves, read-out: Dissociation rate constant (k6* 10^−3)): 0.001 s⁻¹
- Ki ([6]; purified PfENR, read-out: Dissociation constant (Ki)): 0.0489 µM
- IC50 ([7]; Plasmodium berghei, 48 h, hepatic cell stages of P. berghei, two days treatment): 51 µM
- Therapeutic Index (TI) [=TC50/IC50] ([7]; TC50 HepG2 / IC50 EEFs): 39.0 ± 4
- TC50 for HepG2 cells [8]: 2000 ± 200 µM
- Survival, dose determination ([9]; 2.5 mg/kg body weight intravenously, C57BL/6 mice): 18 days
- Kidney and liver functions (urea, creatinine and glucose levels) ([9]; 5 mg/kg body weight): normal kidney and liver functions
- Survival, dose determination ([9]; 5 mg/kg body weight intravenously, C57BL/6 mice): 24 days
- Survival, dose determination ([9]; 10 mg/kg body weight intravenously, C57BL/6 mice): 20 days
- Mean Survival Days (Observed for 25 days) ([9]; Intraperitoneal, C57BL/6 mice, 5 mg/kg): 20 ± 0.9 days
- Mean Survival Days (Observed for 25 days) ([9]; Intraperitoneal, C57BL/6 mice, listed as compound 6, 5 mg/kg): 21 days
- Mean Survival Days (Observed for 25 days) ([9]; Intravenous, C57BL/6 mice, 5 mg/kg): 24 ± 2.0 days
- Mean Survival Days (Observed for 25 days) ([9]; Intravenous, C57BL/6 mice, listed as compound 6, 5 mg/kg): 24 days
- Mean Survival Days (Observed for 25 days) ([9]; Per oral, C57BL/6 mice): 12 ± 1.2 days
- Mean Survival Days (Observed for 25 days) ([9]; Subcutaneous, C57BL/6 mice, 5 mg/kg): 18 ± 1.3 days
- Mean Survival Days (Observed for 25 days) ([9]; Subcutaneous, C57BL/6 mice, listed as compound 6, 5 mg/kg): 21 days
- Survival, dose determination ([9]; at or below 1 mg/kg body weight intravenously, C57BL/6 mice): 11 days
- Parasitemia levels (Peter's test) ([9]; intravenous treatment, C57BL/6 mice): undetectable level by Day 18
- Increase of longevity ([9]; oral route, 5 mg/kg body weight, 6 days treatment): 5 days
- MPE index, hot plate latency assay ([3]; 15 mg/kg b. wt. i.p., 30 and 60 min): preeminent analgesic activity compared to other compounds
- Analgesic activity compared with Ibuprofen, hot plate [3]: potent analgesic activity at much lower concentration than Ibuprofen
- Mechanical hyperalgesia, paw withdrawal threshold [4]: significantly reversed the mechanical hyperalgesia
- Anti-nociceptive response, tail flick latency assay [5]: better anti-nociceptive response than the Ibuprofen

Compound: Oc1cc(Cl)ccc1Oc1ccc(Cl)cc1Cl [Triclosan, reference compound]
- IC50 ([2]; Plasmodium falciparum, 3D7, Erythrocyte): 0.8 ± 0.1 µM
- IC50 [10]: 6.8 µM
